Measured values reported in a compilation of properties of binary mixtures (doi:10.1021/acs.jced.0c00138).

Experiment: xn = mol fraction of the nth substance listed
Settings: 101.3 kPa

CC[n+]1ccn(C)c1.O=S(=O)([N-]S(=O)(=O)C(F)(F)F)C(F)(F)F + CCCOCCO
x1 = 1
Settings	speed of sound [m/s]
298.15 K	1239.6
303.15 K	1228.7
308.15 K	1218.2
313.15 K	1207.3
318.15 K	1196.8

CCCOCCO + CC[n+]1ccn(C)c1.O=S(=O)([N-]S(=O)(=O)C(F)(F)F)C(F)(F)F
speed of sound [m/s]
Settings	298.15 K	303.15 K	308.15 K	313.15 K	318.15 K
x2 = 0.0479	1290.9	1275.1	–	1243.4	1228.5
x2 = 0.0964	1283.5	–	1253.7	1238.8	–
x2 = 0.1514	1278	1264.2	1249.6	1234.5	1220.2
x2 = 0.2034	1273.8	–	1245.7	–	–
x2 = 0.2917	1268	1255	1241.1	–	–
x2 = 0.3883	1263.2	1250.6	1237	1223.4	–
x2 = 0.4926	1258.1	–	1233.3	1220.8	1208.4
x2 = 0.5974	1252.8	1240.9	1229.2	1217.1	1205.2
x2 = 0.6927	1248	1236.4	1225	1214	1202.8
x2 = 0.7631	–	1232.8	1222	1211.3	1200.3
x2 = 0.8253	1241.9	1230.8	1220.5	1209.8	1199.5
x2 = 0.8945	1240.7	–	1219.2	1208.4	1198.4
x2 = 0.9518	1239.7	1229.2	1218.8	1207.7	1198
